Results taken from ChEMBL document CHEMBL4428116, “Synthesis, molecular modeling and SAR study of novel pyrazolo[5,1-f][1,6]naphthyridines as CB2 receptor antagonists/inverse agonists” (Bioorg Med Chem, 2016).
Activity calls are given as the source filed them. No cut-off for these calls is given here.

What was measured:
Cannabinoid receptor 2 [1] = biological target: T1, Cannabinoid receptor 2 (Homo sapiens, UniProt P34972); assay: Displacement of [3H]CP-55,940 from human CB2 receptor expressed in CHO cell membrane after 60 mins by scintillation counting method; format: cell membranes
T1 sequence (P34972 whole entry): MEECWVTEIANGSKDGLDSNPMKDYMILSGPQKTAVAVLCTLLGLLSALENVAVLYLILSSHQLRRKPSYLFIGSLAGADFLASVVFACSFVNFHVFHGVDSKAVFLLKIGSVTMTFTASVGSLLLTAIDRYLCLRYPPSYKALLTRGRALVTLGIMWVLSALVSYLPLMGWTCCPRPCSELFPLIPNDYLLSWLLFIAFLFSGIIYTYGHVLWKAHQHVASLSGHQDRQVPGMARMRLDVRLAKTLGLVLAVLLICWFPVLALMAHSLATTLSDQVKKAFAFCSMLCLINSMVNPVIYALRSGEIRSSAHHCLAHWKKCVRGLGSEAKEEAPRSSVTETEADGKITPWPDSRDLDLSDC

Cannabinoid receptor 1 = Cannabinoid receptor 1 (Homo sapiens, UniProt P21554); assay: Displacement of [3H]CP-55,940 from human CB1 receptor expressed in CHO cell membrane after 90 mins by scintillation counting method; format: cell membranes
Sequence of Cannabinoid receptor 1 (P21554 whole entry): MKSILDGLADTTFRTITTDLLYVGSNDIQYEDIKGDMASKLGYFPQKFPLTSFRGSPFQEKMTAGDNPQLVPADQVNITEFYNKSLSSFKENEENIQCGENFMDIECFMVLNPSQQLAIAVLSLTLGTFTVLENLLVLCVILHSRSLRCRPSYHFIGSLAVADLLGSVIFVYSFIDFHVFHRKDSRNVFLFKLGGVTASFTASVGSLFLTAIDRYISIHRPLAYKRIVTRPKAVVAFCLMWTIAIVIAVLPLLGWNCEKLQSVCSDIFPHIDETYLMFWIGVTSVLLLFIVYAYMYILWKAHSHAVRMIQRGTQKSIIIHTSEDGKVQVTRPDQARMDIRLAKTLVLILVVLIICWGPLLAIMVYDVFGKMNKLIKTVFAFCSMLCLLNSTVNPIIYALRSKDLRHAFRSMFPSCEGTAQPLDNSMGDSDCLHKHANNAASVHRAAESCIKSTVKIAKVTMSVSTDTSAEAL

Homo sapiens = organism: Homo sapiens; assay: Selectivity ratio of Ki for human CB1 receptor expressed in CHO cell membrane to Ki for human CB2 receptor expressed in CHO cell membrane; format: cell-based
Cannabinoid receptor 2 [2] = biological target: T1, Cannabinoid receptor 2; assay: Antagonist activity at human CB2 receptor expressed in CHO cells assessed as inhibition of WIN 55,212-2-induced reduction in forskolin-stimulated cAMP accumulation by Schild plot analysis; format: functional, cell-based
Cannabinoid receptor 2 [3] = biological target: T1, Cannabinoid receptor 2; assay: Antagonist activity at human CB2 receptor expressed in CHO cells assessed as inhibition of WIN 55,212-2-induced reduction in forskolin-stimulated cAMP accumulation at 0.1 to 10 uM by immunoassay; format: functional, cell-based
Cannabinoid receptor 2 [4] = biological target: T1, Cannabinoid receptor 2; assay: Inverse agonist activity at human CB2 receptor expressed in CHO cells assessed as increase in forskolin-stimulated cAMP production at 1 to 10 uM by immunoassay; format: functional, cell-based
Cannabinoid receptor 2 [5] = biological target: T1, Cannabinoid receptor 2; assay: Inverse agonist activity at human CB2 receptor expressed in CHO cells assessed as increase in forskolin-stimulated cAMP production at 0.1 uM by immunoassay; format: functional, cell-based
Cannabinoid receptor 2 [6] = biological target: T1, Cannabinoid receptor 2; assay: Antagonist activity at human CB2 receptor expressed in CHO cells assessed as inhibition of WIN 55,212-2-induced reduction in forskolin-stimulated cAMP accumulation by immunoassay; format: functional, cell-based
Mus musculus = organism: Mus musculus; assay: Selectivity ratio of Ki for CB1 receptor in CD-1 mouse cerebellum membrane to Ki for CB2 receptor in CD-1 mouse spleen homogenate; format: cell membranes

SMILES: Cc1ccc(-c2cc3ncccc3c3cc(C(=O)NN4CCCCC4)nn23)cc1
- Ki (Cannabinoid receptor 2 [1]): > 1000 nM
- Ki (Cannabinoid receptor 1): > 10 µM

SMILES: Cc1ccc(-c2cc3ncccc3c3cc(C(=O)NC4C5CC6CC(C5)CC4C6)nn23)cc1 (stereo unspecified)
- Ki (Cannabinoid receptor 2 [1]): 133 nM
- Ki (Cannabinoid receptor 1): > 10 µM
- Ratio Ki (Homo sapiens): > 75

SMILES: Cc1ccc(-c2cc3ncccc3c3cc(C(=O)N[C@H]4C5(C)CCC(C5)C4(C)C)nn23)cc1 (stereo partly specified)
- Ki (Cannabinoid receptor 2 [1]): 800 nM
- Ki (Cannabinoid receptor 1): 2.2 µM
- Ratio Ki (Homo sapiens): 2.7

SMILES: Cc1ccc(-c2cc3ncccc3c3cc(C(=O)NC4CCCCC4)nn23)cc1
- Ki (Cannabinoid receptor 2 [1]): 2130 nM
- Ki (Cannabinoid receptor 1): > 10 µM
- Ratio Ki (Homo sapiens): > 4.7

SMILES: CC1(C)C2CC[C@@H](CNC(=O)c3cc4c5cccnc5cc(-c5ccc(Cl)cc5Cl)n4n3)C1C2 (stereo partly specified)
- Kb (Cannabinoid receptor 2 [2]): 650 nM
- Ki (Cannabinoid receptor 2 [1]): 67 nM
- Ki (Cannabinoid receptor 1): > 10 µM
- Ratio Ki (Homo sapiens): > 149
- inhibition (Cannabinoid receptor 2 [3]): Active
- Activity (Cannabinoid receptor 2 [4]): Active

SMILES: Cc1ccc(-c2cc3ncccc3c3cc(C(=O)NC[C@@H]4CCC5CC4C5(C)C)nn23)cc1 (stereo partly specified)
- Ki (Cannabinoid receptor 2 [1]): 120 nM
- Ki (Cannabinoid receptor 1): > 10 µM
- Ratio Ki (Homo sapiens): > 83

SMILES: Cc1ccc(-c2cc3ncccc3c3cc(C(=O)NC4C5CC(C[C@@H]4C)C5(C)C)nn23)cc1 (stereo partly specified)
- Ki (Cannabinoid receptor 2 [1]): 240 nM
- Ki (Cannabinoid receptor 1): > 10 µM
- Ratio Ki (Homo sapiens): > 42

SMILES: Cc1ccc(-c2cc3ncccc3c3cc(C(=O)NC45CC6CC(CC(C6)C4)C5)nn23)cc1
- Activity (Cannabinoid receptor 2 [5]): Active
- Kb (Cannabinoid receptor 2 [2]): 316 nM
- Ki (Cannabinoid receptor 2 [1]): 33 nM
- Ki (Cannabinoid receptor 1): 5.7 µM
- Ratio Ki (Homo sapiens): 173
- inhibition (Cannabinoid receptor 2 [6]): Dose-dependent effect

SMILES: Cc1ccc2c(c1)Cc1c(C(=O)NN3CCCCC3)nn(-c3ccc(Cl)cc3Cl)c1-2
- Ratio Ki (Mus musculus): 9810

SMILES: CC1=C(C(=O)c2cccc3ccccc23)C2C=CC=C3OC[C@@H](CN4CCOCC4)N1C32 (stereo partly specified)
- Ki (Cannabinoid receptor 1): 0.013 µM
- Ratio Ki (Homo sapiens): 5.2

SMILES: Cc1ccc(-c2cc3ncccc3c3cc(C(=O)N[C@H]4CC5CCC4(C)C5(C)C)nn23)cc1 (stereo partly specified)
- Kb (Cannabinoid receptor 2 [2]): 505 nM
- Ki (Cannabinoid receptor 2 [1]): 53 nM
- Ki (Cannabinoid receptor 1): 7 µM
- Ratio Ki (Homo sapiens): 132
- inhibition (Cannabinoid receptor 2 [3]): Active
- Activity (Cannabinoid receptor 2 [4]): Active

SMILES: Cc1ccc(-c2cc3ncccc3c3cc(C(=O)N[C@@H]4C[C@H](C)CC[C@H]4C(C)C)nn23)cc1
- Ki (Cannabinoid receptor 2 [1]): 280 nM
- Ki (Cannabinoid receptor 1): 3.3 µM
- Ratio Ki (Homo sapiens): 12
